Data: PMC5653977 (EMBO Molecular Medicine, 2017)
Counter-ions that a name gives are not always drawn.

Each molecule was assayed on NRG1-ERBB4 signaling (assay: Nrg1-ERBB4-PIK3R1 split TEV co-culture compound screen of the NIH Clinical Collection). Conditions: not given.
Assay type: cell-based, human
Text: For our HTS‐compatible split TEV assay approach, human full‐length ERBB4‐Cyt1 was fused to the NTEV fragment, a TEV protease cleavage site (tevS) and the artificial co‐transcriptional activator Gal4‐VP16 (ERBB4‐NTEV‐tevS‐GV); human PIK3R1 was fused to the CTEV fragment (PIK3R1‐CTEV) (Fig 1A). Upon ERBB4 activation, PIK3R1 is recruited to the receptor resulting in a reconstituted protease activity that cleaves off GV. In turn, released GV translocates to the nucleus and binds to upstream activating sequences (UAS) to activate the transcription of a firefly luciferase reporter gene (Fig 1A). A constitutively expressed Renilla luciferase driven under the control of the human thymidine kinase (TK) promoter was used as control to address off‐target effects related to toxicity.
For small molecule screening, the NIH‐NCC Clinical Collection library (sets NCC‐003 and NCC‐201) was used containing 727 small molecules that are FDA‐approved and have a history in clinical applications (www.nihclinicalcollection.com). A Hamilton Labstar robot connected to 37 and 4°C incubators for cell incubation and compound storage and application (Cytomat automated incubator, ThermoScientific) and to a luciferase reader (Berthold Technologies) was used to automatically perform the screening. […] Each batch was screened three times.
For one 96‐well plate, 4 × 10^6 PC12 cells were harvested and diluted in 5 ml assay medium (phenol red‐free DMEM (low glucose, Life Technologies), 10% FCS, 5% HS, no antibiotics). The split TEV assay plasmids (2 μg pcDNA3_ERBB4‐NTEV‐tevS‐GV‐2xHA, 2 μg pTag4C_PIK3R1‐CTEV‐2xHA, 2 μg p5xUAS_firefly luciferase, 2 μg pTK_Renilla luciferase, and 0.5 μg pECFP‐C1 for examining transfection efficiency) were diluted in 2.5 ml Opti‐MEM (Life Technologies) and vortexed. In parallel, 20 μl of the transfection reagent Lipofectamine 2000 was diluted in 2.5 ml Opti‐MEM and vortexed.
For plating of one 96‐well plate, 10 ml suspension, containing the 4 × 10^6 in solution‐transfected cells, was placed in the bubble paddle reservoir of the Hamilton Cellstar robot. 100 μl was seeded per 96‐well using the 96‐tip pipetting head. The homogeneity of the cell suspension was guaranteed over time by mild stirring using the paddling device inside the reservoir. For five plates each, 50 ml of additional cell suspension was used to allow for losses of inaccessible volume.
The cells were allowed to express the plasmids for 24 h before compounds were added. Proper expression and transfection efficiency were verified by ECFP expression on a clear control plate. The compounds were applied in a final concentration of 10 μM using DMSO as diluent. […] Thirty minutes later, 10,000 Nrg1‐expressing PC12 cells in 100 μl assay medium were seeded on top. 24 h after addition of the compounds, the cells were lysed using 40 μl Passive Lysis buffer (Promega) and subjected to a Dual Luciferase Assay (Promega) according to the manufacturer's instructions. The data were analyzed in R Bioconductor using the package cellHTS2 (http://www.bioconductor.org/packages/devel/bioc/html/cellHTS2.html), assessed using the z‐score, and visualized using the program Mondrian (http://stats.math.uni-augsburg.de/mondrian/).

Row | Molecule | Z-SCORE
1 | CNC(=N)NCCC[C@H](N)C(=O)O | -0.42
2 | CCCSc1ccc2nc(NC(=O)OC)[nH]c2c1 [Albendazole, reference compound] | -5.48

Same assay, conditions: NIH Clinical Collection NCC-003 raw data; compounds ranked by Z-score; 'flagged' given instead of a Z-score

Row | Molecule | Z-SCORE
3 | O=c1cnn([C@@H]2O[C@H](CO)[C@@H](O)[C@H]2O)c(=O)[nH]1 [6-AZAURIDINE] | -1.32
4 | CCOC(=O)C1=C(C)NC(C)=C(C(=O)OC)C1c1cccc([N+](=O)[O-])c1 (stereo not drawn) [NITRENDIPINE] | -1.82
5 | CC[C@]1(O)C[C@H]2CN(CCc3c([nH]c4ccccc34)[C@@](C(=O)OC)(c3cc4c(cc3OC)N(C=O)[C@H]3[C@@](O)(C(=O)OC)[C@H](OC(C)=O)[C@]5(CC)C=CCN6CC[C@]43[C@@H]65)C2)C1 [VINCRISTINE SULFATE] | flagged
6 | COC(=O)C1=C(C)NC(C)=C(C(=O)O[C@@H]2CCCN(Cc3ccccc3)C2)[C@@H]1c1cccc([N+](=O)[O-])c1.Cl (racemic) [BENIDIPINE HCl] | -1.41
7 | CCCCCCCCCOc1ccc2[nH]cc(CCN)c2c1 [5-Nonyloxytryptamine] | flagged
8 | O=C([O-])C[C@H](O)C[C@H](O)/C=C/c1c(C2CC2)nc2ccccc2c1-c1ccc(F)cc1.O=C([O-])C[C@H](O)C[C@H](O)/C=C/c1c(C2CC2)nc2ccccc2c1-c1ccc(F)cc1.[Ca+2] [ITAVASTATIN Ca] | flagged
9 | CC[C@H](C)C(=O)O[C@H]1CCC=C2C=C[C@H](C)[C@H](CC[C@@H]3C[C@@H](O)CC(=O)O3)[C@H]21 [mevastatin] | flagged

Same assay, conditions: compound screen of the NIH Clinical Collection, sheet raw data NCC-003; compounds ranked by Z-score

Row | Molecule | Z-SCORE
10 | C[C@@H]1C[C@H]2[C@@H]3C[C@H](F)C4=CC(=O)C(Cl)=C[C@]4(C)[C@@]3(F)[C@@H](O)C[C@]2(C)[C@@]1(O)C(=O)CO.O [HALOMETASONE MONOHYDRATE] | -0.25
11 | CCN(CC)CC1CCCCN1CC(=O)N1c2ccccc2C(=O)Nc2cccnc21 (stereo not drawn) | 1
12 | CN(C)CCC[C@@]1(c2ccc(F)cc2)OCc2cc(C#N)ccc21 [ESCITALOPRAM OXALATE] | -0.11
13 | CN(C)CCc1c[nH]c2ccc(Cn3cncn3)cc12 [RIZATRIPTAN BENZOATE] | -0.76
14 | CC(C)[C@H](N)C(=O)OCCOCn1cnc2c(=O)[nH]c(N)nc21 [VALACICLOVIR HYDROCHLORIDE] | 0.49
15 | CC(NC(C)(C)C)C(=O)c1cccc(Cl)c1.Cl (stereo not drawn) [AMFEBUTAMONE HCl] | 0
16 | NC(=O)OCCCc1ccccc1 [PHENPROBAMATE] | -0.62
17 | c1cncc([C@@H]2CCCN2)c1 [Nornicotine] | 0.27
18 | COc1cc(C[C@@H](CO)[C@H](CO)Cc2ccc(O)c(OC)c2)ccc1O [SECOISOLARICIRESINOL] | -0.17
19 | c1ccc(Cn2ccnc2)cc1 [1-BENZYLIMIDAZOLE] | -0.1
20 | CC1=NS(=O)(=O)c2cc(Cl)ccc2N1 [DIAZOXIDE] | 2.34
21 | C[C@]12CC[C@H](O)CC1=CC[C@@H]1[C@@H]2CC[C@]2(C)C(=O)CC[C@@H]12 [DEHYDROEPIANDROSTERONE] | 0.4
22 | C[C@]12CC[C@H](O)CC1=CC[C@@H]1[C@@H]2CC[C@@]2(C)[C@H]1CC[C@]2(C)O [METHYLANDROSTENEDIOL] | 0.32
23 | Cc1cccc(Nc2ccncc2S(=O)(=O)NC(=O)NC(C)C)c1 [TORASEMIDE] | 0.4
24 | CN(CCO)CC(O)Cn1cnc2c1c(=O)n(C)c(=O)n2C.O=C(O)c1cccnc1 (stereo not drawn) [XANTHINOL NICOTINATE] | -0.46
25 | O=C(O[C@@H]1Cc2c(O)cc(O)cc2O[C@@H]1c1cc(O)c(O)c(O)c1)c1cc(O)c(O)c(O)c1 [Epigallocatechin gallate] | 1.36
26 | OCc1cc(C(O)CNCCCCCCOCCCCc2ccccc2)ccc1O (stereo not drawn) [Salmeterol] | 0.6
27 | COc1ccc(C2CNC(=O)C2)cc1OC1CCCC1 (stereo not drawn) [ROLIPRAM] | 1.06
28 | Cl.O=C(O)/C=C/c1ccc(Cn2ccnc2)cc1 [Ozagrel hydrochloride] | 0.36
29 | CC(CCCCC(=O)Nc1ccc(C(F)(F)F)cc1)NCCc1cnc[nH]1 (stereo not drawn) [HTMT] | -0.18
30 | CN(C)[C@@H]1C(O)=C(C(=O)NCN2CCCC2)C(=O)[C@@]2(O)C(O)=C3C(=O)c4c(O)cccc4[C@@](C)(O)[C@H]3C[C@@H]12 [ROLITETRACYCLINE] | -0.5
31 | COc1ccccc1N1CCN(CC(O)COc2cccc3ccccc23)CC1 (stereo not drawn) [NAFTOPIDIL] | 0.24
32 | CN(Cc1cnc2nc(N)nc(N)c2n1)c1ccc(C(=O)N[C@@H](CCC(=O)O)C(=O)O)cc1 | 0.85
33 | CN(C)CCC(c1ccc(Cl)cc1)c1ccccn1 (stereo not drawn) [Chlorpheniramine] | -0.07
34 | CC(C(O)c1ccc(O)cc1)N1CCC(Cc2ccccc2)CC1 (stereo not drawn) [Ifenprodil] | 1.07

Same assay, conditions: compounds at 10 μM, 24 h; PC12 split TEV assay cells co-cultured with Nrg1-expressing PC12 cells; analysed with cellHTS2

Row | Molecule | Z-SCORE
35 | CN(C)CCC=C1c2ccccc2COc2ccccc21 [DOXEPIN HYDROCHLORIDE, reference compound] | 1.31
36 | CC1(C)S[C@@H]2[C@H](NC(=O)[C@H](N)c3ccccc3)C(=O)N2[C@H]1C(=O)O [Ampicillin Sodium, reference compound] | -1.31
37 | CCC(C)(C)C(=O)O[C@H]1C[C@@H](C)C=C2C=C[C@H](C)[C@H](CC[C@@H]3C[C@@H](O)CC(=O)O3)[C@H]21 [Simvastatin, reference compound] | flagged
38 | CN(C)CCCC1(c2ccc(F)cc2)OCc2cc(C#N)ccc21 (stereo not drawn) [Citalopram, reference compound] | -1.5
39 | O=S(=O)(O)CCS [Mesna, reference compound] | 0.04
40 | Oc1ncnc2[nH]ncc12 [Allopurinol, reference compound] | 0.21
41 | S(-)-Timolol maleate [reference compound] | -0.49
42 | O=C1CCC(N2C(=O)c3ccccc3C2=O)C(=O)N1 (stereo not drawn) [Thalidomide, reference compound] | -0.61
43 | CNCCC(Oc1ccc(C(F)(F)F)cc1)c1ccccc1 (stereo not drawn) [Prozac, reference compound] | -1.46
44 | N[C@H](Cc1cc(I)c(Oc2ccc(O)c(I)c2)c(I)c1)C(=O)O [NSC46046, reference compound] | -1.87
45 | CSc1ccc2c(c1)N(CCC1CCCCN1C)c1ccccc1S2 (stereo not drawn) [THIORIDAZINE HYDROCHLORIDE, reference compound] | flagged
46 | Cc1ccc(C)c(OCCCC(C)(C)C(=O)O)c1 [GEMFIBROZIL, reference compound] | 0.52
47 | Cc1nccn1CC1CCc2c(c3ccccc3n2C)C1=O (stereo not drawn) [Ondansetron, reference compound] | 0.12
48 | CC(C)C(=O)Nc1ccc([N+](=O)[O-])c(C(F)(F)F)c1 [FLUTAMIDE, reference compound] | 0.85
49 | C[C@H]1C[C@H]2[C@@H]3CCC4=CC(=O)C=C[C@]4(C)[C@@]3(F)[C@@H](O)C[C@]2(C)[C@@]1(O)C(=O)CO [Betamethasone, reference compound] | 3.82
50 | NS(=O)(=O)Cc1noc2ccccc12 [Zonisamide, reference compound] | -0.47
51 | CNC(=C[N+](=O)[O-])NCCSCc1ccc(CN(C)C)o1 [Ranitidine hydrochloride, reference compound] | -0.51
52 | CN1CCN(CC/C=C2/c3ccccc3Sc3ccc(S(=O)(=O)N(C)C)cc32)CC1 [THIOTHIXENE, reference compound] | 1.3
53 | COc1cc(Cc2cnc(N)nc2N)cc(OC)c1OC [Trimethoprim, reference compound] | 0.28
54 | CCCOc1ccc(C(=O)OCCN(CC)CC)cc1N [Proparacaine hydrochloride, reference compound] | 0.5
55 | COc1ccccc1OCC(O)COC(N)=O (stereo not drawn) [Methocarbamol, reference compound] | 0.65
56 | NS(=O)(=O)c1cc2c(cc1C(F)(F)F)NCNS2(=O)=O [HYDROFLUMETHIAZIDE, reference compound] | -0.47
57 | CNCC(O)c1ccc(O)c(O)c1.Cl (racemic) [(+/-)-Epinephrine hydrochloride, reference compound] | -0.69
